In patent US5296492A, “Certain chroman derivatives useful for treating symptoms caused by contraction of smooth muscles, circulatory diseases or epilepsy” (Nippon Kayaku Kabushiki Kaisha, priority 1991, dated 1994):
Read-outs that look alike come from different tables or passages of the source.

Columns and labels:
[1] = tested on: rat aorta; experiment: Spasmolytic effect in isolated rat aorta; type: cell-based, male SD rat; settings: 20 mM KCl contraction, 37° C., maximal inhibition with papaverine hydrochloride 10^-4 M = 100, mean value±standard error, n = 3, read-out: -log IC50 (spasmolytic effect on rat aorta contracted with 20 mM KCl) (converted)
Description: (§1) 1. Spasmolytic effect in isolated rat aorta and dog coronary artery
The thoracic aorta of male SD rat was isolated and cut into 3 mm wide ring preparations. Each preparation was mounted in a 10 ml organ bath filled with Krebs-Henseleit solution by applying a resting tension of 1.0 g. The nutrient solution was maintained at 37° C. and aerated with a 95% O2 /5% CO2 gas. The isometric tension of the preparation was measured with a FD pickup and recorded on a recorder.
(§2) After about one hour of equilibration time, a compound of this invention was cumulatively administered to the preparation contracted with 20 mM KCl, and its spasmolytic effect was examined. The spasmolytic action of the compound of this invention was expressed as percentage of inhibition, taking the maximal inhibition obtained with papavarine hydrochloride (10^-4 M) as 100. The IC50 value (50% inhibition) for the compound of this invention was determined from the concentration-response curve fitted by non-linear regressions with a personal computer, and its potency expressed in terms of -log IC50 was shown as [mean value±standard error].

[2] = tested on: dog coronary artery; experiment: Spasmolytic effect in isolated dog coronary artery; type: cell-based, mongrel dogs; settings: for spasmolytic effect on a contraction caused by 80 mM KCl (in words): potencies compared with 20 mM KCl; for IC50: Canis lupus familiaris, mean value±standard error
Description: as §1, §2
Ring preparations of coronary artery from mongrel dogs of either sex were prepared and isometric tension of the preparation was measured by the same method as above, except that the resting tension was adjusted to 1.5 g. For estimating the mechanism of action, the effect on the contraction caused by 80 mM KCl was also studied.

[3] = tested on: guinea-pig trachea; experiment: Bronchodilator effect in isolated tracheal smooth muscle (guinea-pig trachea, leukotriene D4 contraction); type: cell-based, Hartley male guinea-pigs
Description: 2. Bronchodilator effect in isolated tracheal smooth muscle
Hartley male guinea-pigs (NISSEIKEN) were stunned by a blow to the head and their tracheas were removed. Each trachea was carefully made into 20 small pieces so as not to injure them, and five pieces of them were linked together with a yarn to prepare tracheal strip chain. The preparation was suspended in 15 ml of an organ bath filled with a modified Krebs-Henseleitsolution containing indomethacin (b 5×10^-6 M) by applying a tension of 0.5 g. The solution was maintained at 35° C. and aerated with a 95% O2 /5% CO2 gas. After an equilibration time of one hour, the experiment was carried out. The results were isometrically recorded on a Multipen Recorder (R-64VL, mfd. by Rika Denki Kogyo) through a transducer (TD-112S, mfd. by Nihon Kohden) and an input box (JD-112S, mfd. by Nihon Kohden).
Each preparation was made to attain the maximal contraction with carbachol (3×10^-6 and 10^-5 M) and washed. When it reached an equilibrium, it was exposed to L-cysteine as an aminopeptidase inhibitor (3×10^-3 M). After thirty minutes, a contractive reaction was made to take place with leukotriene D4 (3×10^-9 M). When the contraction had reached a constant value, a test drug (10^-8 to 3×10^-5 M) was cumulatively applied into the bath at a dose ratio of 3. Finally, the maximal relaxation of each preparation was confirmed with papaverine.
The relaxations given by each test drug at various concentrations were converted to percentages of relaxation, taking the maximal relaxation obtained with papaverine as 100. The maximal relaxation (%) of each test drug and -log of ED30 (M) which is the dose of each test drug giving a percentage of relaxation of 30% as determined by a linear regression method from percentages of relaxation at two different doses are shown below.

[4] = Acute toxicity in mice (up and down method); settings: mouse, in vivo, iv
Description: Acute toxicity of the test drug was evaluated in mice, following intravenous administration. The LD50 of the test drug was determined using up and down method.

[5] = 20 mM KCl contraction, n = 3 (n = 4 for Compound No. 81), read-out: -log IC50 (spasmolytic effect on dog coronary artery, 20 mM KCl) (converted)
[6] = 80 mM KCl contraction, n = 3, read-out: -log IC50 (spasmolytic effect on dog coronary artery, 80 mM KCl) (converted)

Row | Structure (SMILES) | IC50 [1] [nM] | further results
1 | CC1(C)Oc2ccc(C#N)cc2[C@@H](n2ccc(CO[N+](=O)[O-])cc2=O)[C@@H]1O (relative stereo) [Compound No. 2, trans-3-hydroxy-6-cyano-3,4-dihydro-2,2-dimethyl-4-(1,2-dihydro-2-oxo-4-nitroxymethyl-1-pyridinyl)-2H-benzo[b]pyran] | 51.3 | 
2 | CC(=O)O[C@H]1[C@H](n2ccc(CO[N+](=O)[O-])cc2=O)c2cc(C#N)ccc2OC1(C)C (relative stereo) [Compound No. 44, trans-3-acetoxy-6-cyano-3,4-dihydro-2,2-dimethyl-4-(1,2-dihydro-2-oxo-4-nitroxymethyl-1-pyridinyl)-2H-benzo[b]pyran] | 6610 | 
3 | CC1(C)C=C(n2ccc(CO[N+](=O)[O-])cc2=O)c2cc(C#N)ccc2O1 [Compound No. 69, 6-cyano-2,2-dimethyl-4-(1,2-dihydro-2-oxo-4-nitroxymethyl-1-pyridinyl)-2H-benzo[b]pyran] | 3.31 | spasmolytic effect on a contraction caused by 80 mM KCl (in words) [2]: also exhibited a spasmolytic effect on a contraction caused by 80 mM KCl, though their potencies are lower than those against the contraction caused by 20 mM KCl; IC50 [2, 5]: 8.71 nM; IC50 [2, 6]: 12600 nM; EC30 ([3]; Cavia porcellus, leukotriene D4 (3×10^-9 M), dose giving 30% relaxation, papaverine maximal relaxation = 100, value is a negative log, read-out: Relaxing action on the contraction caused by leukotriene D4: -log[EX30 (M)] (converted)): 2.24e-07 M; Emax ([3]; Cavia porcellus, leukotriene D4 (3×10^-9 M), test drug 10^-8 to 3×10^-5 M cumulatively, papaverine maximal relaxation = 100, read-out: Relaxing action on the contraction caused by leukotriene D4: Maximal relaxation %): 93.9%; relaxant effect on isolated guinea pig tracheal smooth muscle contracted by leukotriene D4 / bronchodilator activity (in words) ([3]; leukotriene D4): strong relaxant effect; LD50 [4]: 81.2 mg/kg
4 | CC1(C)C=C(n2cc(CO[N+](=O)[O-])ccc2=O)c2cc(C#N)ccc2O1 [Compound No. 70, 6-cyano-2,2-dimethyl-4-(1,2-dihydro-2-oxo-5-nitroxymethyl-1-pyridinyl)-2H-benzo[b]pyran] | 135 | 
5 | CC(O[N+](=O)[O-])c1ccn(C2=CC(C)(C)Oc3ccc(C#N)cc32)c(=O)c1 (centres unmarked) [Compound No. 72, 6-cyano-2,2-dimethyl-4-{1,2-dihydro-2-oxo-4-(1-nitroxyethyl)-1-pyridinyl}-2H-benzo[b]pyran] | 67.6 | 
6 | CC1(C)C=C(n2ccc(CCCO[N+](=O)[O-])cc2=O)c2cc(C#N)ccc2O1 [Compound No. 77, 6-cyano-2,2-dimethyl-4-{1,2-dihydro-2-oxo-4-(3-nitroxypropyl)-1-pyridinyl}-2H-benzo[b]pyran] | 12.6 | spasmolytic effect on a contraction caused by 80 mM KCl (in words) [2]: also exhibited a spasmolytic effect on a contraction caused by 80 mM KCl, though their potencies are lower than those against the contraction caused by 20 mM KCl; IC50 [2, 5]: 2.14 nM; IC50 [2, 6]: 380 nM
7 | CC1(C)C=C(n2ccc(CCCCO[N+](=O)[O-])cc2=O)c2cc(C#N)ccc2O1 [Compound No. 81, 6-cyano-2,2-dimethyl-4-{1,2-dihydro-2-oxo-4-(4-nitroxybutyl)-1-pyridinyl}-2H-benzo[b]pyran] | 39.8 | spasmolytic effect on a contraction caused by 80 mM KCl (in words) [2]: also exhibited a spasmolytic effect on a contraction caused by 80 mM KCl, though their potencies are lower than those against the contraction caused by 20 mM KCl; IC50 [2, 5]: 0.0316 nM; IC50 [2, 6]: 229 nM
8 | CC1(C)C=C(n2ccc(C(CCO[N+](=O)[O-])O[N+](=O)[O-])cc2=O)c2cc(C#N)ccc2O1 (centres unmarked) [Compound No. 91, 6-cyano-2,2-dimethyl-4-{1,2-dihydro-2-oxo-4-(1,3-dinitroxypropyl)-1-pyridinyl}-2H-benzo[b]pyran] | 102 | 
9 | CC1(C)C=C(n2ccc(CO[N+](=O)[O-])cc2=O)c2cc(C(F)(F)F)ccc2O1 [Compound No. 105, 6-trifluoromethyl-2,2-dimethyl-4-(1,2-dihydro-2-oxo-4-nitroxymethyl-1-pyridinyl)-2H-benzo[b]pyran] | 5.89 | 
10 | CC1(C)C=C(n2cccc(CO)c2=O)c2cc(C#N)ccc2O1 [Compound No. 160, 6-cyano-2,2-dimethyl-4-(1,2-dihydro-2-oxo-3-hydroxymethyl-1-pyridinyl)-2H-benzo[b]pyran] | 813 | 
11 | CC1(C)C=C(n2ccc(CO)cc2=O)c2cc(C#N)ccc2O1 [Compound No. 161, 6-cyano-2,2-dimethyl-4-(1,2-dihydro-2-oxo-4-hydroxymethyl-1-pyridinyl)-2H-benzo[b]pyran] | 525 | 
12 | CC1(C)C=C(n2cc(CO)ccc2=O)c2cc(C#N)ccc2O1 [Compound No. 162, 6-cyano-2,2-dimethyl-4-(1,2-dihydro-2-oxo-5-hydroxymethyl-1-pyridinyl)-2H-benzo[b]pyran] | 138 | 
13 | C=Cc1ccn(C2=CC(C)(C)Oc3ccc(C#N)cc32)c(=O)c1 [Compound No. 190, 6-cyano-2,2-dimethyl-4-(1,2-dihydro-2-oxo-4-vinyl-1-pyridinyl)-2H-benzo[b]pyran] | 60.3 | 
14 | CC1(C)C=C(n2ccc(C=O)cc2=O)c2cc(C#N)ccc2O1 [Compound No. 191, 6-cyano-2,2-dimethyl-4-(1,2-dihydro-2-oxo-4-formyl-1-pyridinyl)-2H-benzo[b]pyran] | 447 | 
15 | CC1(C)C=C(n2ccc(CCCO)cc2=O)c2cc(C#N)ccc2O1 [Compound No. 192, 6-cyano-2,2-dimethyl-4-(1,2-dihydro-2-oxo-4-(3-hydroxypropyl)-1-pyridinyl}-2H-benzo[b]pyran] | 1120 | 
16 | CC1(C)C=C(n2ccc(CCCCO)cc2=O)c2cc(C#N)ccc2O1 [Compound No. 193, 6-cyano-2,2-dimethyl-4-{1,2-dihydro-2-oxo-4-(4-hydroxybutyl)-1-pyridinyl}-2H-benzo[b]pyran] | 1350 | 
